Laboratory results as given in ChEMBL document CHEMBL3044788, “α-(Substituted-phenoxyacetoxy)-α-heterocyclylmethylphosphonates: synthesis, herbicidal activity, inhibition on pyruvate dehydrogenase complex (PDHc), and application as postemergent herbicide against broadleaf weeds” (J Agric Food Chem, 2013).

How the values were obtained:
Chenopodium album [1] = test: Herbicidal activity against Chenopodium album assessed as relative growth inhibition at 100 g/ha in greenhouse by post-emergence herbicidal activity assay; assay type: functional; settings: read-out: GI
Amaranthus blitum [2] = test: Herbicidal activity against Amaranthus blitum assessed as relative growth inhibition at 100 g/ha in greenhouse by post-emergence herbicidal activity assay; assay type: functional; settings: read-out: GI
Polygonum aviculare [3] = test: Herbicidal activity against Polygonum aviculare assessed as relative growth inhibition at 100 g/ha in greenhouse by post-emergence herbicidal activity assay; assay type: functional; settings: read-out: GI
Beta vulgaris [4] = test: Herbicidal activity against Beta vulgaris assessed as relative growth inhibition at 50 g/ha in greenhouse by post-emergence herbicidal activity assay; assay type: functional; settings: read-out: GI
Amaranthus blitum [5] = test: Herbicidal activity against Amaranthus blitum assessed as relative growth inhibition at 50 g/ha in greenhouse by post-emergence herbicidal activity assay; assay type: functional; settings: read-out: GI
Polygonum aviculare [6] = test: Herbicidal activity against Polygonum aviculare assessed as relative growth inhibition at 50 g/ha in greenhouse by post-emergence herbicidal activity assay; assay type: functional; settings: read-out: GI
[7] = Toxicity in orally dosed Rattus norvegicus (rat); assay type: organism-based; settings: in vivo, po
[8] = tested on: Brassica rapa subsp. oleifera; test: Herbicidal activity against Brassica rapa subsp. oleifera assessed as inhibition of rape root growth at 450 g/ha by pre-emergence herbicidal activity assay; assay type: functional; settings: read-out: GI
Oryza sativa [9] = test: Herbicidal activity against Oryza sativa (rice) assessed as relative growth inhibition at 450 g/ha in greenhouse by postemergence herbicidal activity assay; assay type: organism-based; settings: in vivo, other
Beta vulgaris [10] = test: Herbicidal activity against Beta vulgaris assessed as relative growth inhibition at 450 g/ha in greenhouse by post-emergence herbicidal activity assay; assay type: functional; settings: read-out: GI
Amaranthus spinosus [11] = test: Herbicidal activity against Amaranthus spinosus assessed as relative growth inhibition at 450 g/ha in greenhouse by postemergence herbicidal activity assay; assay type: functional; settings: post-emergence, read-out: GI
Amaranthus blitum [12] = test: Herbicidal activity against Amaranthus blitum assessed as relative growth inhibition at 450 g/ha in greenhouse by post-emergence herbicidal activity assay; assay type: functional; settings: read-out: GI
Oryza sativa [13] = test: Herbicidal activity against Oryza sativa (rice) assessed as relative growth inhibition at 300 g/ha in greenhouse by postemergence herbicidal activity assay; assay type: organism-based; settings: in vivo, other
Zea mays [14] = test: Herbicidal activity against Zea mays (maize) assessed as relative growth inhibition at 300 g/ha in greenhouse by postemergence herbicidal activity assay; assay type: organism-based; settings: in vivo, other
Amaranthus spinosus [15] = test: Herbicidal activity against Amaranthus spinosus assessed as relative growth inhibition at 300 g/ha in greenhouse by postemergence herbicidal activity assay; assay type: functional; settings: post-emergence, read-out: GI
Chenopodium album [16] = test: Herbicidal activity against Chenopodium album assessed as relative growth inhibition at 300 g/ha in greenhouse by post-emergence herbicidal activity assay; assay type: functional; settings: read-out: GI
Amaranthus blitum [17] = test: Herbicidal activity against Amaranthus blitum assessed as relative growth inhibition at 300 g/ha in greenhouse by post-emergence herbicidal activity assay; assay type: functional; settings: read-out: GI
Beta vulgaris [18] = test: Herbicidal activity against Beta vulgaris assessed as relative growth inhibition at 200 g/ha in greenhouse by post-emergence herbicidal activity assay; assay type: functional; settings: read-out: GI
Zea mays [19] = test: Herbicidal activity against Zea mays (maize) assessed as relative growth inhibition at 200 g/ha in greenhouse by postemergence herbicidal activity assay; assay type: organism-based; settings: in vivo, other
[20] = tested on: Brassica rapa subsp. oleifera; test: Herbicidal activity against Brassica rapa subsp. oleifera assessed as inhibition of rape root growth at 450 g/ha by postemergence herbicidal activity assay; assay type: functional; settings: post-emergence, read-out: GI
[21] = Toxicity in percutaneously dosed Rattus norvegicus (rat); assay type: organism-based; settings: in vivo, topical or ocular
[22] = Inhibition of Oryza sativa (rice) PDHc by spectrophotometric assay
Brassica juncea = test: Herbicidal activity against two to three-leaf stage Brassica juncea assessed as inhibition of plant growth at 450 g/ha in greenhouse by post-emergence herbicidal activity assay; assay type: functional; settings: read-out: GI
Amaranthus blitum [23] = test: Herbicidal activity against Amaranthus blitum assessed as relative growth inhibition at 200 g/ha in greenhouse by post-emergence herbicidal activity assay; assay type: functional; settings: read-out: GI
Beta vulgaris [24] = test: Herbicidal activity against Beta vulgaris assessed as relative growth inhibition at 100 g/ha in greenhouse by post-emergence herbicidal activity assay; assay type: functional; settings: read-out: GI
Echinochloa crus-galli = test: Herbicidal activity against 2 to 3 leaf stage Echinochloa crus-galli (barnyard grass) assessed as inhibition of plant growth at 450 g/ha in greenhouse by postemergence herbicidal activity assay; assay type: functional; settings: Echinochloa crus-galli, post-emergence; read-out: GI
Amaranthus retroflexus [25] = test: Herbicidal activity against 2 to 3 leaf stage Amaranthus retroflexus assessed as inhibition of plant growth at 450 g/ha in greenhouse by postemergence herbicidal activity assay; assay type: functional; settings: post-emergence, read-out: GI
Chenopodium album [26] = test: Herbicidal activity against Chenopodium album assessed as relative growth inhibition at 900 g/ha in greenhouse by post-emergence herbicidal activity assay; assay type: functional; settings: read-out: GI
Amaranthus blitum [27] = test: Herbicidal activity against Amaranthus blitum assessed as relative growth inhibition at 900 g/ha in greenhouse by post-emergence herbicidal activity assay; assay type: functional; settings: read-out: GI
Polygonum aviculare [28] = test: Herbicidal activity against Polygonum aviculare assessed as relative growth inhibition at 900 g/ha in greenhouse by post-emergence herbicidal activity assay; assay type: functional; settings: read-out: GI
Zea mays [29] = test: Herbicidal activity against Zea mays (maize) assessed as relative growth inhibition at 600 g/ha in greenhouse by postemergence herbicidal activity assay; assay type: organism-based; settings: in vivo, other
Beta vulgaris [30] = test: Herbicidal activity against Beta vulgaris assessed as relative growth inhibition at 600 g/ha in greenhouse by post-emergence herbicidal activity assay; assay type: functional; settings: read-out: GI
Amaranthus spinosus [31] = test: Herbicidal activity against Amaranthus spinosus assessed as relative growth inhibition at 600 g/ha in greenhouse by postemergence herbicidal activity assay; assay type: functional; settings: post-emergence, read-out: GI
Chenopodium album [32] = test: Herbicidal activity against Chenopodium album assessed as relative growth inhibition at 600 g/ha in greenhouse by post-emergence herbicidal activity assay; assay type: functional; settings: read-out: GI
Amaranthus blitum [33] = test: Herbicidal activity against Amaranthus blitum assessed as relative growth inhibition at 600 g/ha in greenhouse by post-emergence herbicidal activity assay; assay type: functional; settings: read-out: GI
Amaranthus retroflexus [34] = test: Herbicidal activity against 2 to 3 leaf stage Amaranthus retroflexus assessed as inhibition of plant growth at 150 g/ha in greenhouse by postemergence herbicidal activity assay; assay type: functional; settings: post-emergence, read-out: GI
[35] = tested on: Brassica rapa subsp. oleifera; test: Herbicidal activity against two to three-leaf stage Brassica rapa subsp. oleifera assessed as inhibition of plant growth at 150 g/ha in greenhouse by postemergence herbicidal activity assay; assay type: functional; settings: post-emergence, read-out: GI
Abutilon theophrasti = test: Herbicidal activity against two to three-leaf stage Abutilon theophrasti (velvetleaf) assessed as inhibition of plant growth at 150 g/ha in greenhouse by post-emergence herbicidal activity assay; assay type: functional; settings: read-out: GI
Zea mays [36] = test: Herbicidal activity against Zea mays (maize) assessed as relative growth inhibition at 1200 g/ha in greenhouse by postemergence herbicidal activity assay; assay type: organism-based; settings: in vivo, other
Beta vulgaris [37] = test: Herbicidal activity against Beta vulgaris assessed as relative growth inhibition at 1200 g/ha in greenhouse by post-emergence herbicidal activity assay; assay type: functional; settings: read-out: GI
Chenopodium album [38] = test: Herbicidal activity against Chenopodium album assessed as relative growth inhibition at 1200 g/ha in greenhouse by post-emergence herbicidal activity assay; assay type: functional; settings: read-out: GI
Zea mays [39] = test: Herbicidal activity against Zea mays (maize) assessed as relative growth inhibition at 900 g/ha in greenhouse by postemergence herbicidal activity assay; assay type: organism-based; settings: in vivo, other
Oryza sativa [40] = test: Herbicidal activity against Oryza sativa (rice) assessed as relative growth inhibition at 900 g/ha in greenhouse by postemergence herbicidal activity assay; assay type: organism-based; settings: in vivo, other
Beta vulgaris [41] = test: Herbicidal activity against Beta vulgaris assessed as relative growth inhibition at 900 g/ha in greenhouse by post-emergence herbicidal activity assay; assay type: functional; settings: read-out: GI

## COP(=O)(OC)C(OC(=O)COc1ccc(Cl)cc1Cl)c1ccco1 (centres undefined)
Chenopodium album [1]
  inhibition of growth at 100 g/ha: 90%
Amaranthus blitum [2]
  inhibition of growth at 100 g/ha: 100%
Polygonum aviculare [3]
  inhibition of growth at 100 g/ha: 83%
Beta vulgaris [4]
  inhibition of growth at 50 g/ha: 80%
Amaranthus blitum [5]
  inhibition of growth at 50 g/ha: 100%
Polygonum aviculare [6]
  inhibition of growth at 50 g/ha: 70%
[7]
  LD50: 2700 mg/kg
[8]
  inhibition of growth at 450 g/ha: 94%
Oryza sativa [9]
  growth inhibition (GI): 0%
Beta vulgaris [10]
  inhibition of growth at 450 g/ha: 100%
Amaranthus spinosus [11]
  inhibition of growth at 450 g/ha: 100%
Amaranthus blitum [12]
  inhibition of growth at 450 g/ha: 100%
Oryza sativa [13]
  growth inhibition (GI): 0%
Zea mays [14]
  growth inhibition (GI): 0%
Amaranthus spinosus [15]
  inhibition of growth at 300 g/ha: 98%
Chenopodium album [16]
  inhibition of growth at 300 g/ha: 100%
Amaranthus blitum [17]
  inhibition of growth at 300 g/ha: 100%
Beta vulgaris [18]
  inhibition of growth at 200 g/ha: 98%
Zea mays [19]
  growth inhibition (GI): 0%
[20]
  inhibition of growth at 450 g/ha: 92%
[21]
  LD50: > 2000 mg/kg
[22]
  IC50: 704 µM
Brassica juncea
  inhibition of growth at 450 g/ha: 96.5%
Amaranthus blitum [23]
  inhibition of growth at 200 g/ha: 100%
Beta vulgaris [24]
  inhibition of growth at 100 g/ha: 80%
Echinochloa crus-galli
  inhibition of growth at 450 g/ha: 25%
Amaranthus retroflexus [25]
  inhibition of growth at 450 g/ha: 100%
Chenopodium album [26]
  inhibition of growth at 900 g/ha: 100%
Amaranthus blitum [27]
  inhibition of growth at 900 g/ha: 100%
Polygonum aviculare [28]
  inhibition of growth at 900 g/ha: 100%
Zea mays [29]
  growth inhibition (GI): 0%
Beta vulgaris [30]
  inhibition of growth at 600 g/ha: 100%
Amaranthus spinosus [31]
  inhibition of growth at 600 g/ha: 100%
Chenopodium album [32]
  inhibition of growth at 600 g/ha: 100%
Amaranthus blitum [33]
  inhibition of growth at 600 g/ha: 100%
Amaranthus retroflexus [34]
  inhibition of growth at 150 g/ha: 95%
[35]
  inhibition of growth at 150 g/ha: 95%
Abutilon theophrasti
  inhibition of growth at 150 g/ha: 95%
Zea mays [36]
  growth inhibition (GI): 10%
Beta vulgaris [37]
  inhibition of growth at 1200 g/ha: 100%
Chenopodium album [38]
  inhibition of growth at 1200 g/ha: 100%
Zea mays [39]
  growth inhibition (GI): 0%
Oryza sativa [40]
  growth inhibition (GI): 0%
Beta vulgaris [41]
  inhibition of growth at 900 g/ha: 100%
